# Assay results: US20150017673A1, “COMPOSITIONS AND METHODS FOR DRUG-SENSITIZATION OR INHIBITION OF A CANCER CELL” (priority 2012, published 2015)
# Read-outs that look alike come from different tables or passages of the source.
# Tests used:
# [1] = tested on: multi-drug resistant ovarian cancer cell line OVCAR-3; test: Cell growth assay on OVCAR-3 cells; assay type: cell-based; conditions: OVCAR-3, ovarian carcinoma
# Method: (§1) Compositions were tested on CHOP-resistant G3 NHL cells that had been cultivated in RPMI medium for five days. Prior to assay, the cells were counted by haemocytometer and cell concentration standardized to 625,000 cells/ml. Test drugs were solubilized in 100% DMSO and then diluted to final assay concentration with 0.1M phosphate buffered saline (PBS) and a final DMSO concentration of 0.5%. Cells were added to assay plates containing the test drugs (rifabutin+148 ng/ml, 74 ng/ml, 37 ng/ml, or 0 ng/ml doxorubicin) and allowed to incubate for 96 hours at 37° C. and 5% CO2. The metabolic dye rezasurin was added to the wells of the assay plate at a final concentration of 20 μg/ml and the plates were incubated for an additional 24 hours. The plates were then read in a BMG Polarstar plate reader at wavelength (573-605) and the data plotted as OD versus increasing dilutions (i.e. decreasing total amounts) of rifabutin derivative concentration.
# (§2) In these experiments, the following cell lines were used: CHOP-resistant NHL cell line G3, CHOP-sensitive NHL cell line CRL2631, the multi-drug resistant sarcoma cell line MES-SA-Dx5; multi-drug-resistant breast cancer cell line MDA-MB-231, multi-drug resistant ovarian carcinoma cell line SK-OV3, multi-drug resistant ovarian cancer cell line NCI/ADR-RES, drug-sensitive ovarian cancer cell line OVCAR-5, and multi-drug resistant ovarian cancer cell line OVCAR-3. […]
# [2] = tested on: lymphoma cell line G3; test: Cell growth assay (resazurin fluorescence) on CHOP-resistant G3 NHL cells; assay type: cell-based, human; conditions: for Magnitude of potentiation in combination with doxorubicin: G3, lymphoma B cells
# Method: as §1
# [3] = tested on: multi-drug resistant ovarian carcinoma cell line SK-OV3; test: Cell growth assay on SK-OV3 cells; assay type: cell-based, human; conditions: SK-OV3, ovarian carcinoma
# Method: as §1, §2
# [4] = tested on: ROS in G3 lymphoma cells; test: Intracellular ROS (CellROX, flow cytometry) in G3 cells; assay type: cell-based, human; conditions: 10 uM, FIG. 40
# Method: Cells were then stained with the fluorescent ROS indicator, CellROX, and subjected to flow cytometry to quantitate total intracellular ROS.
# The electron transport chain (ETC) is known to be a primary generator of ROS in the cell. Most of the ROS is generated by Complexes I and III of the ETC Inhibition of Complex I results in electrons piling up and leaking to react with oxygen to produce ROS.
# All samples were analyzed at the same time in flow cytometry.
# [5] = tested on: multi-drug-resistant breast cancer cell line MDA-MB-231; test: Cell growth assay on MDA-MB-231 cells; assay type: cell-based; conditions: for Magnitude of potentiation in combination with doxorubicin: MDA-MB-231, breast carcinoma; for IC50: Homo sapiens
# Method: as §1
# (§3) In these experiments, the following cell lines were used: CHOP-resistant NHL cell line G3, CHOP-sensitive NHL cell line CRL2631, the multi-drug resistant sarcoma cell line MES-SA-Dx5; multi-drug-resistant breast cancer cell line MDA-MB-231, multi-drug resistant ovarian carcinoma cell line SK-OV3, multi-drug resistant ovarian cancer cell line NCI/ADR-RES, drug-sensitive ovarian cancer cell line OVCAR-5, and multi-drug resistant ovarian cancer cell line OVCAR-3.
# (§4) Additional cell lines used include: ovarian cancer OVCAR-8, T lymphoblastoid leukemia MOLT-4, dexamethasone-resistant multiple myeloma MM.1R, myeloid leukemia cells HL-60, osteosarcoma cells U-2 OS, and myeloma RPMI 8226.
# [6] = tested on: multi-drug resistant ovarian cancer cell line NCI/ADR-RES; test: Cell growth assay on NCI/ADR-RES cells; assay type: cell-based; conditions: NCI/ADR-RES, ovarian carcinoma
# Method: as §1, §3, §4
# [7] = analog alone, lymphoma cell line G3, read-out: IC50
# [8] = with 1 μM doxorubicin, lymphoma cell line G3, read-out: IC50 (μM) with doxorubicin (1 μM)
Compound,Magnitude of potentiation in combination with doxorubicin [1],"IC50 [2, 7] [µM]",Fold increase in potency over DOX alone ([2]; lymphoma cell line G3) [fold],"IC50 [2, 8] [µM]",Magnitude of potentiation in combination with doxorubicin [3],further results
"COC1C=COC2(C)Oc3c(C)c(O)c4c(c3C2=N)C2=NC3(CCN(CCN5CCOCC5)CC3)NC2=C(NC(=O)C(C)=CC=CC(C)C(O)C(C)C(O)C(C)C(OC(C)=O)C1C)C4=O (stereo not shown) [RTI-53, 11-deoxy-11-imino-4-deoxy-3,4[2-spiro-[1-(2-morpholinoethyl)-piperidin-4-yl]]-(1H)-imidazo-(2,5-dihydro)rifamycin S]",+ (potentiation between 1.2 to 2.0 fold increase),> 64,0.2,11.8,+ (potentiation between 1.2 to 2.0 fold increase),–
"11-deoxy-11-imino-4-deoxy-3,4[2-spiro-[1-(2-methoxyethyl)- piperidin-4-yl]]-(1H)-imidazo-(2,5-dihydro)rifamycin S [RTI-51]",+ (potentiation between 1.2 to 2.0 fold increase),> 64,0.7,3.3,+ (potentiation between 1.2 to 2.0 fold increase),–
O=c1[nH]c2ccccc2n1C1CCN(Cc2ccc(-c3nc4cc5[nH]cnc5cc4nc3-c3ccccc3)cc2)CC1 [Akt Inhibitor VIII],–,–,–,–,–,"CHOP resistance ([2]; G3 cells, varying amounts of Akt Inhibitor VIII): dose-dependent reversal of CHOP resistance"
"COC1C=COC2(C)Oc3c(C)c(O)c4c(c3C2N)C2=NC3(CCN(C(=O)NCC(C)C)CC3)NC2=C(NC(=O)C(C)=CC=CC(C)C(O)C(C)C(O)C(C)C(OC(C)=O)C1C)C4=O (stereo not shown) [RTI-183, 11-deoxy-11-amino-4-deoxy-3,4[2-spiro-[1-(isobutylaminocarbonyl)-piperidin-4-yl]]-(1H)-imidazo-(2,5-dihydro)rifamycin S]",+ (potentiation between 1.2 to 2.0 fold increase),> 64,0.5,5.19,–,–
"COC1C=COC2(C)Oc3c(C)c(O)c4c(c3C2N)C2=NC3(CCN(CC(C)C)CC3)NC2=C(NC(=O)C(C)=CC=CC(C)C(O)C(C)C(O)C(C)C(OC(C)=O)C1C)C4=O (stereo not shown) [RTI-181, 11-deoxy-11-amino-4-deoxy-3,4[2-spiro-[1-(2-methylpropyl)-piperidin-4-yl]]-(1H)-imidazo-(2,5-dihydro)rifamycin S]",+ (potentiation between 1.2 to 2.0 fold increase),52,5.5,0.43,+++ (potentiation greater than 5 fold increase),Magnitude of potentiation in combination with doxorubicin [2]: +++ (potentiation greater than 5 fold increase)
"4-deoxy-3,4[2-spiro-[1-(n-propyloxycarbonyl)-piperidin-4-yl]]- (1H)-imidazo-(2,5-dihydro)rifamycin S [RTI-78]",–,58,29.5,0.08,–,–
"CC[C@]1(O)C[C@@H]2CN(CCc3c([nH]c4ccccc34)[C@@](C(=O)OC)(c3cc4c(cc3OC)N(C)[C@H]3[C@@](O)(C(=O)OC)[C@H](OC(C)=O)[C@]5(CC)C=CCN6CC[C@]43[C@@H]65)C2)C1 [Vinblastine, vinblastine]",–,–,–,–,–,"IC50 ([2]; Homo sapiens, therapeutic drug alone, G3, read-out: IC50): 8 µM; IC50 ([2]; Homo sapiens, therapeutic drug with Rifabutin, G3, read-out: IC50 (μM) with Rifabutin): 1 µM; Fold increase in potency ([2]; with vs without Rifabutin, G3): 8.0 fold"
"C=C(C)[C@H]1Cc2c(ccc3c2O[C@@H]2COc4cc(OC)c(OC)cc4[C@@H]2C3=O)O1 [Rotenone, rotenone]",–,–,–,–,–,ROS levels [4]: induced ROS
"11-deoxy-11-imino-4-deoxy-3,4[2-spiro-[1- (ethylaminocarbonyl)-piperidin-4-yl]]-(1H)-imidazo-(2,5- dihydro)rifamycin S [RTI-82]",–,> 64,0.7,3.5,–,Magnitude of potentiation in combination with doxorubicin [5]: +++ (potentiation greater than 5 fold increase)
"COC1C=COC2(C)Oc3c(C)c(O)c4c(c3C2O)C2=NC3(CCN(CC(C)C)CC3)NC2=C(NC(=O)C(C)=CC=CC(C)C(O)C(C)C(O)C(C)C(OC(C)=O)C1C)C4=O (stereo not shown) [RTI-174, 11-deoxy-11-hydroxy-4-deoxy-3,4[2-spiro-[1-(2-methylpropyl)-piperidin-4-yl]]-(1H)-imidazo-(2,5-dihydro)rifamycin S]",+ (potentiation between 1.2 to 2.0 fold increase),51,3.7,0.64,+ (potentiation between 1.2 to 2.0 fold increase),Magnitude of potentiation in combination with doxorubicin [6]: + (potentiation between 1.2 to 2.0 fold increase); Magnitude of potentiation in combination with doxorubicin [2]: ++ (potentiation between 2.1 to 5 fold increase)
"COC1C=COC2(C)Oc3c(C)c(O)c4c(c3C2=O)C2=NC3(CCN(C(=O)NCC(C)C)CC3)NC2=C(NC(=O)C(C)=CC=CC(C)C(O)C(C)C(O)C(C)C(OC(C)=O)C1C)C4=O (stereo not shown) [RTI-102, 4-deoxy-3,4[2-spiro-[1-(isobutylaminocarbonyl)-piperidin-4-yl]]-(1H)-imidazo-(2,5-dihydro)rifamycin S]",–,> 64,2.5,0.95,+++ (potentiation greater than 5 fold increase),Magnitude of potentiation in combination with doxorubicin [2]: ++ (potentiation between 2.1 to 5 fold increase)
"Nc1ccn([C@@H]2O[C@H](CO)[C@@H](O)C2(F)F)c(=O)n1 [Gemcitabine, gemcitabine]",–,–,–,–,–,"IC50 ([5]; therapeutic drug alone, MDA-MB-231, read-out: IC50): > 32 µM; IC50 ([5]; therapeutic drug with Rifabutin, MDA-MB-231, read-out: IC50 (μM) with Rifabutin): 4.83 µM; Fold increase in potency ([5]; with vs without Rifabutin, MDA-MB-231): >6.6 fold"
"COC1C=COC2(C)Oc3c(C)c(O)c4c(c3C2=N)C2=NC3(CCN(C(=O)NCC(C)C)CC3)NC2=C(NC(=O)C(C)=CC=CC(C)C(O)C(C)C(O)C(C)C(OC(C)=O)C1C)C4=O (stereo not shown) [RTI-182, 11-deoxy-11-imino-4-deoxy-3,4[2-spiro-[1-(isobutylaminocarbonyl)-piperidin-4-yl]]-(1H)-imidazo-(2,5-dihydro)rifamycin S]",+ (potentiation between 1.2 to 2.0 fold increase),62,2.0,1.2,++ (potentiation between 2.1 to 5 fold increase),Magnitude of potentiation in combination with doxorubicin [2]: + (potentiation between 1.2 to 2.0 fold increase); Magnitude of potentiation in combination with doxorubicin [5]: ++ (potentiation between 2.1 to 5 fold increase)
CC(=O)OCOC(=O)CN(CC(=O)OCOC(C)=O)c1ccccc1OCCOc1ccccc1N(CC(=O)OCOC(C)=O)CC(=O)OCOC(C)=O [BAPTA-AM],–,–,–,–,–,ROS levels [4]: induced ROS
